Assays:
[1] = molecular target: T1, GLS1 (purified recombinant human GAC) (Homo sapiens, UniProt O94925); test: GLS1 enzymatic activity assay (dual-coupled, Amplex UltraRed/resorufin); type: biochemical
T1 sequence (O94925 55-598 isoform O94925-3 limits assumed): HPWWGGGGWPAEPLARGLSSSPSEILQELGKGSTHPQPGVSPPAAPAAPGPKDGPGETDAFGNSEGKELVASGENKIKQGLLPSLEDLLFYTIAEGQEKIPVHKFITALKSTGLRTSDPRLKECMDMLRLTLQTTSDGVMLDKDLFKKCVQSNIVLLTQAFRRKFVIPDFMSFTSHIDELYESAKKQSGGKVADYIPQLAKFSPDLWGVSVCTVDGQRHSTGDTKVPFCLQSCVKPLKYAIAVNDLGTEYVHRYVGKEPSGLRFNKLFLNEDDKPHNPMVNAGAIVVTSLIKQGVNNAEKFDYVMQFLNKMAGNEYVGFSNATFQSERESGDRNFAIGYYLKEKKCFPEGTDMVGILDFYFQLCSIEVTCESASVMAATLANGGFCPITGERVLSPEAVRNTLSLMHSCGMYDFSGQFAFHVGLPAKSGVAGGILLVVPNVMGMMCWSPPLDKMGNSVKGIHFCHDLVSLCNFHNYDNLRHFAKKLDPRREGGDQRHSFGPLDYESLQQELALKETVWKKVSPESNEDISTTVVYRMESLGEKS
Method in brief: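 GAC activity measured by coupling glutamate to glutamate oxidase and HRP, generating resorufin from Amplex UltraRed. Enzyme (2 nM) preincubated with 50 mM potassium phosphate 10 min at room temperature, then inhibitor 10 min; 1 mM glutamine substrate, 1% DMSO. Fluorescence 530/590 nm, kinetic or 20-min endpoint; IC50 from four-parameter logistic fit.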

A549 cells = test: A549 proliferation (viability) assay, Cell Titer Fluor, 72 hours; type: cell-based; settings: Homo sapiens
Method in brief: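 A549 cells in RPMI 1640 with 10% dialyzed FBS were seeded at 1000 cells/well, grown 24 h, then exposed to compound (0.5% DMSO final) for 72 h at 37 °C, 5% CO2. Viability was read by Cell Titer Fluor fluorescence; EC50 from four-parameter logistic fit.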

| SMILES | IC50 [1] [nM] | EC50 (A549 cells) [nM] |
| --- | --- | --- |
| O=C(Cc1ccccc1)Nc1ccn(CCCCCn2ccc(NC(=O)Cc3ccccc3)nc2=O)c(=O)n1 [Example 71, N-(2-oxo-1-{5-[2-oxo-4-(2-phenyl-acetamido)-1,2-dihydropyrimidin-1-yl]pentyl}-1,2-dihydropyrimidin-4-yl)-2-phenylacetamide] | 500 to 5000 | > 5000 |
| Nc1nnc(CCCCn2ccc(NC(=O)Cc3ccccc3)nc2=O)s1 [Example 72, N-{1-[4-(5-amino-1,3,4-thiadiazol-2-yl)butyl]-2-oxo-1,2-dihydropyrimidin-4-yl}-2-phenylacetamide] | 500 to 5000 | > 5000 |
| O=C(Cc1ccccc1)Nc1ccn(CCCCc2nnc(NC(=O)Cc3ccccc3)s2)c(=O)n1 [Example 73, N-(2-oxo-1-{4-[5-(2-phenylacetamido)-1,3,4-thiadiazol-2-yl]butyl}-1,2-dihydropyrimidin-4-yl)-2-phenylacetamide] | < 100 | 500 to 5000 |
| O=C(Cc1ccccc1)Nc1ccn(CCCCCc2nnc(NC(=O)Cc3ccccc3)s2)c(=O)n1 [Example 74, N-(2-oxo-1-{5-[5-(2-phenylacetamido)-1,3,4-thiadiazol-2-yl]pentyl}-1,2-dihydropyrimidin-4-yl)-2-phenylacetamide] | 500 to 5000 | > 5000 |
| O=C(Cc1cccc(OC(F)(F)F)c1)Nc1ccc(CCCCn2ccc(NC(=O)Cc3ccccc3)nc2=O)nn1 [Example 75, N-{2-oxo-1-[4-(6-{2-[3-(trifluoro-methoxy)phenyl]acetamido}pyridazin-3-yl)butyl]-1,2-dihydropyrimidin-4-yl}-2-phenylacetamide] | < 100 | < 100 |
| CC(=O)Nc1ccn(CCCCc2ccc(NC(=O)Cc3cccc(OC(F)(F)F)c3)nn2)c(=O)n1 [Example 76, N-{6-[4-(4-acetamido-2-oxo-1,2-dihydropyrimidin-1-yl)butyl]pyridazin-3-yl}-2-[3-(trifluoromethoxy)phenyl]acetamide] | < 100 | 100 to 500 |
| Nc1ccn(CCCCc2ccc(NC(=O)Cc3cccc(OC(F)(F)F)c3)nn2)c(=O)n1 [Example 77, N-{6-[4-(4-amino-2-oxo-1,2-dihydropyrimidin-1-yl)butyl]pyridazin-3-yl}-2-[3-(trifluoromethoxy)phenyl]acetamide] | 500 to 5000 | > 5000 |
| O=C(Cc1cccc(OC(F)(F)F)c1)Nc1ccc(CCCCn2ccc(NC(=O)[C@@H](O)c3ccccc3)nc2=O)nn1 [Example 78, (2S)-2-hydroxy-N-{2-oxo-1-[4-(6-{2-[3-(trifluoro-methoxy)phenyl]acetamido}pyridazin-3-yl)butyl]-1,2-dihydropyrimidin-4-yl}-2-phenylacetamide] | < 100 | < 100 |
| Nc1nnc(CCCCn2ccc(NC(=O)Cc3cccc(OC(F)(F)F)c3)nc2=O)s1 [Example 79, N-{1-[4-(5-amino-1,3,4-thiadiazol-2-yl)butyl]-2-oxo-1,2-dihydropyrimidin-4-yl}-2-[3-(trifluoromethoxy)phenyl]acetamide] | 500 to 5000 | 500 to 5000 |
| O=C(Cc1cccc(OC(F)(F)F)c1)Nc1ccn(CCCCc2nnc(NC(=O)[C@@H](O)c3ccccc3)s2)c(=O)n1 [Example 80, (2S)-2-hydroxy-N-{5-[4-(2-oxo-4-{2-[3-(trifluoro-methoxy)phenyl]acetamido}-1,2-dihydropyrimidin-1-yl)butyl]-1,3,4-thiadiazol-2-yl}-2-phenylacetamide] | < 100 | 100 to 500 |
| O=C(Cc1cccc(OC(F)(F)F)c1)Nc1ccn(CCCCc2nnc(NC(=O)Cc3cccnc3)s2)c(=O)n1 [Example 81, N-[2-oxo-1-(4-{5-[2-(pyridin-3-yl)acetamido]-1,3,4-thiadiazol-2-yl]butyl)-1,2-dihydropyrimidin-4-yl]-2-[3-(trifluoromethoxy)phenyl]acetamide] | < 100 | 500 to 5000 |
| O=C(Cc1cccnc1)Nc1ccn(CCCCc2nnc(NC(=O)Cc3ccccc3)s2)c(=O)n1 [Example 82, N-[5-(4-{2-oxo-4-[2-(pyridin-3-yl)acetamido]-1,2-dihydropyrimidin-1-yl}butyl)-1,3,4-thiadiazol-2-yl]-2-phenylacetamide] | < 100 | > 5000 |
| O=C(Cc1ccccc1)Nc1nnc(CCCCn2ccc(NC(=O)[C@@H](O)c3ccccc3)nc2=O)s1 [Example 83, (2S)-2-hydroxy-N-(2-oxo-1-{4-[5-(2-phenylacetamido)-1,3,4-thiadiazol-2-yl]butyl}-1,2-dihydropyrimidin-4-yl)-2-phenylacetamide] | < 100 | > 5000 |
| O=C(Cc1ccccc1)Nc1nnc(CCCCn2ccc(NC(=O)[C@H](O)c3ccccc3)nc2=O)s1 [Example 84, (2R)-2-hydroxy-N-(2-oxo-1-{4-[5-(2-phenylacetamido)-1,3,4-thiadiazol-2-yl]butyl}-1,2-dihydropyrimidin-4-yl)-2-phenylacetamide] | < 100 | > 5000 |
| CC(C)(C)OC(=O)NCc1cccc(CC(=O)Nc2ccn(CCCCc3nnc(NC(=O)Cc4ccccc4)s3)c(=O)n2)c1 [Example 85, tert-butyl N-[(3-{[(2-oxo-1-{4-[5-(2-phenylacetamido)-1,3,4-thiadiazol-2-yl]butyl}-1,2-dihydropyrimidin-4-yl)carbamoyl]methyl}phenyl)methyl] carbamate] | < 100 | 100 to 500 |
| CCNC(=O)Nc1ccn(CCCCc2ccc(NC(=O)Cc3ccccc3)nn2)c(=O)n1 [Example 86, N-[6-(4-{4-[(ethylcarbamoyl)amino]-2-oxo-1,2-dihydropyrimidin-1-yl}butyl)pyridazin-3-yl]-2-phenylacetamide] | 500 to 5000 | > 5000 |
| CC(C)NC(=O)Nc1ccn(CCCCc2ccc(NC(=O)Cc3ccccc3)nn2)c(=O)n1 [Example 87, N-{6-[4-(2-oxo-4-{[(propan-2-yl)carbamoyl]amino}-1,2-dihydropyrimidin-1-yl)butyl]pyridazin-3-yl}-2-phenylacetamide] | 500 to 5000 | > 5000 |
| O=C(Cc1ccccc1)Nc1ccc(CCCCn2ccc(NC(=O)NC3CCCCC3)nc2=O)nn1 [Example 88, N-[6-(4-{4-[(cyclohexylcarbamoyl)amino]-2-oxo-1,2-dihydropyrimidin-1-yl}butyl)pyridazin-3-yl]-2-phenylacetamide] | 100 to 500 | 500 to 5000 |
| C[C@@H](NC(=O)Nc1ccn(CCCCc2ccc(NC(=O)Cc3ccccc3)nn2)c(=O)n1)c1ccccc1 [Example 89, N-(6-{4-[2-oxo-4-({[(1R)-1-phenylethyl]carbamoyl}amino)-1,2-dihydropyrimidin-1-yl]butyl}pyridazin-3-yl)-2-phenylacetamide] | 100 to 500 | > 5000 |
| C[C@H](NC(=O)Nc1ccn(CCCCc2ccc(NC(=O)Cc3ccccc3)nn2)c(=O)n1)c1ccccc1 [Example 90, N-(6-{4-[2-oxo-4-({[(1S)-1-phenylethyl]carbamoyl}amino)-1,2-dihydropyrimidin-1-yl]butyl}pyridazin-3-yl)-2-phenylacetamide] | 100 to 500 | > 5000 |
| O=C(Cc1cccc(OC(F)(F)F)c1)Nc1ccn(CCCCn2ccc(NC(=O)Cc3cccc(OC(F)(F)F)c3)nc2=O)c(=O)n1 [Example 91, N-{2-oxo-1-[4-(2-oxo-4-{2-[3-(trifluoromethoxy)phenyl]acetamido}-1,2-dihydropyrimidin-1-yl)butyl]-1,2-dihydropyrimidin-4-yl}-2-[3-(trifluoromethoxy)phenyl]acetamide] | < 100 | 100 to 500 |
| CC(=O)Nc1ccn(CCCCc2ccc(NC(=O)Cc3ccccc3)nn2)c(=O)n1 [Example 92, N-{6-[4-(4-acetamido-2-oxo-1,2-dihydropyrimidin-1-yl)butyl]pyridazin-3-yl}-2-phenylacetamide] | < 100 | 500 to 5000 |
| COC(=O)Nc1ccn(CCCCc2ccc(NC(=O)Cc3ccccc3)nn2)c(=O)n1 [Example 93, methyl N-(2-oxo-1-{4-[6-(2-phenylacetamido)pyridazin-3-yl]butyl}-1,2-dihydropyrimidin-4-yl)carbamate] | 100 to 500 | 500 to 5000 |
| CC(C)OC(=O)Nc1ccn(CCCCc2ccc(NC(=O)Cc3ccccc3)nn2)c(=O)n1 [Example 94, propan-2-yl N-(2-oxo-1-{4-[6-(2-phenylacetamido)pyridazin-3-yl]butyl}-1,2-dihydropyrimidin-4-yl)carbamate] | < 100 | 100 to 500 |
| O=C(Cc1ccccc1)Nc1ccc(CCCCn2ccc(NC(=O)OC3CCCCC3)nc2=O)nn1 [Example 95, cyclohexyl N-(2-oxo-1-{4-[6-(2-phenylacetamido)pyridazin-3-yl]butyl}-1,2-dihydropyrimidin-4-yl)carbamate] | < 100 | < 100 |
| O=C(Cc1ccccc1)Nc1ccc(CCCCn2ccc(NC(=O)OCc3ccccc3)nc2=O)nn1 [Example 96, benzyl N-(2-oxo-1-{4-[6-(2-phenylacetamido)pyridazin-3-yl]butyl}-1,2-dihydropyrimidin-4-yl)carbamate] | < 100 | 100 to 500 |
